Source: patent publication US10179770B2, “Quinolines derivatives as novel anticancer agents” (GENOSCIENCE PHARMA, priority 2013, dated 2019)
Counter-ions that a name gives are not always drawn. Like-named read-outs stand apart in the source and are kept apart here.

How the values were obtained:
Assay in all cases: Cell proliferation assay at 10 μM
A375 = type: cell-based, human; details: for viability at 10 µM: Homo sapiens, read-out: Cell viability observed at 10 μM
Method: (§1) The human melanoma cell line A375 and colorectal carcinoma cell line HCT-116 were cultured in Dulbecco's modified Eagle's medium supplemented with 10% fetal bovine serum and 1% Penicillin-Streptomycin. The human leukemia cell line MOLM-14 was cultured in Minimum Essential Medium Alpha Medium supplemented with 10% Fetal Bovine Serum and 1% Penicillin-Streptomycin. All the cell lines were maintained at 37° C. with 5% CO2.
(§2) Briefly, adherent cells, A375 and HCT-116 cells were respectively plated at 800 or 5,000 cells per well onto 96-well plates in 90 μL of media per well and were allowed to grow overnight before the assay.
(§3) Compounds were added at different concentrations to each well, and cell cultures were incubated for 72 h. Vehicle (DMSO or H2O) was used as a control, and all compounds were tested in a constant percentage of vehicle. Cell outgrowth was measured using for adherent cells CellTiter […] Aqueous One Solution Cell Proliferation Assay (Promega) and for cell suspension, Sulforhodamine B colorimetric assay as described in Vichai et al. (Vichai, V. and Kirtikara, K. Nat. Protoc. 2006 (1) 1112-1116). Absorbance was measured using an Infinite F200 Pro or Sunrise TECAN plate reader.
(§4) In each experiment, each point represents the average of two replicates in cell culture.
(§5) Results are presented in Table 1 below for concentrations of 10 μM of tested compounds.

HCT-116 = type: cell-based; details: Homo sapiens, HCT-116, 72 h
Method: as §1, §2, §3, §4, §5

MOLM-14 = type: cell-based, human; details: for viability at 10 µM: Homo sapiens, read-out: Cell viability observed at 10 μM
Method: as §1
For MOLM-14 cell line, which grows in suspension, 30,000 cells were plated onto 96-well plates immediately before the assay.
as §3, §4, §5

[1] = A-375, A375, 10 μM, 72 h, % of cell viability remaining
[2] = HCT-116, 10 μM, 72 h, % of cell viability remaining, read-out: Cell viability observed at 10 μM
[3] = MOLM-14, 10 μM, 72 h, % of cell viability remaining
[4] = read-out: Cell viability observed at 10 μM
[5] = A375, 10 μM, 72 h, % of cell viability remaining

Compound	viability at 10 µM (A375; A-375, 72 h) [%]	viability at 10 µM (MOLM-14; MOLM-14, 72 h) [%]	viability at 10 µM (HCT-116; [4]) [%]	further results
CC(c1ccccc1)N1CCC(N(C)c2cc(-c3ccccc3)nc3cc(Cl)ccc23)CC1 (stereo not shown) [XXX-2, 7-chloro-2-phenyl-4-[N-methyl-N—(N-1-phenylethyl-piperidin-4-yl)-amino]quinoline]	> 80	60 to 80		viability at 10 µM (HCT-116; read-out: Cell viability observed at 10 μM, HCT-116, 10 μM, 72 h, % of cell viability remaining): > 80%
CCN(CC)C1CCN(c2cc(-c3ccccc3)nc3ccccc23)CC1 [Compound I-3, 2-phenyl-4-(4-N,N-diethylamino-piperidin-1-yl)quinoline]				viability at 10 µM (A375; [1]): > 80%; viability at 10 µM (HCT-116; [2]): > 80%; viability at 10 µM (MOLM-14; [3]): 60 to 80%
CCN(CC)C1CCN(C(=O)c2cc(-c3ccccc3)nc3ccccc23)CC1 [XVIII-2, 4-[4-(N,N-diethylamino)piperidin-1-ylcarbonyl]-2-phenyl-quinoline dihydrochloride]				viability at 10 µM (A375; [1]): > 80%; viability at 10 µM (HCT-116; [2]): > 80%; viability at 10 µM (MOLM-14; [3]): > 80%
c1ccc(-c2cc(N3CCC(N4CCCCC4)CC3)c3ccccc3n2)cc1 [III-4, 2-phenyl-4-([1,4′]-bipiperidin-1′-yl)quinoline dihydrochloride]	> 80	60 to 80	> 80	
c1ccc(-c2cc(N3CCC(N4CCOCC4)CC3)c3ccccc3n2)cc1 [Compound V-2, 2-phenyl-4-[(4-morpholin-4-yl)piperidin-1yl]quinoline dihydrochloride]	> 80	60 to 80	> 80	
CN(c1cc(-c2ccccc2)nc2cc(Cl)ccc12)C1CCN(Cc2ccccc2)CC1 [XXIX-2, 7-chloro-2-phenyl-4-[N-methyl-N—(N-benzylpiperidin-4-yl)-amino]quinoline hydrochloride salt]				viability at 10 µM (A375; [1]): > 80%; viability at 10 µM (HCT-116; [2]): > 80%; viability at 10 µM (MOLM-14; [3]): > 80%
CCN(CC)C1CCN(c2cc(-c3ccccc3)nc3cc(Cl)ccc23)CC1 [II-4, 7-chloro-2-phenyl-4-(4-N,N-diethylamino-piperidin-1-yl)quinoline dihydrochloride]	< 20	60 to 80	20 to 40	
CN(C)CCN(C)Cc1cc(-c2ccccc2)nc2cc(Cl)ccc12 [XXXVIII-2, N^1,N^1,N^2-trimethyl-N^2-(2-phenyl-7-chloro-quinoline-4-ylmethyl)-ethane-1,2-diamine hydrochloride salt]	< 20	40 to 60	< 20	
CN(C)CCCNCc1cc(-c2ccccc2)nc2cc(Cl)ccc12 [XLIV-2, N^1,N^1-dimethyl-N^3-(7-chloro-2-phenylquinoline-4-ylmethyl)-propane-1,3-diamine hydrochloride salt]	< 20	< 20	< 20	
CC(c1cc(-c2ccccc2)nc2ccccc12)N1CCC(N(CCc2ccccc2)Cc2ccccc2)CC1 (stereo not shown) [XXI-4, 2-phenyl-4-{1-{4-[benzyl(phenethyl)amino]-piperidin-1-yl}-eth-1-yl}quinoline dihydrochloride]	> 80	> 80	> 80	
CC(NC1CCN(Cc2ccccc2)CC1)c1cc(-c2ccccc2)nc2ccccc12 (stereo not shown) [XXXIV-2, 2-phenyl-4-{1-[(N-benzyl-piperidin-4-yl)amino]-eth-1-yl}quinoline hydrochloride salt]	< 20	40 to 60	20 to 40	
CN(C)CCCN(C)c1cc(-c2ccc3ccccc3c2)nc2ccccc12 [XXXIX-2, N^1,N^1,N^3-trimethyl-N^3-[2-(naphthalen-2-yl)-quinoline-4-yl]-propane-1,3-diamine hydrochloride salt]	< 20	< 20	< 20	
CCN(CC)C1CCN(c2cc(-c3ccc(Cl)cc3)nc3ccccc23)CC1 [Compound X-6, 2-(4-chloro-phenyl)-4-(4-N,N-diethylamino-piperidin-1-yl)quinoline dihydrochloride]	< 20	40 to 60	< 20	
CC(NC1CCN(Cc2ccccc2)CC1)c1cc(-c2ccccc2)nc2cc(Cl)ccc12 (stereo not shown) [XXXV-2, 7-chloro-2-phenyl-4-{1-[(N-benzyl-piperidin-4-yl)amino]-eth-1-yl}quinoline hydrochloride salt]	> 80	> 80	> 80	
CN(C)CCCNC(=O)c1cc(-c2ccccc2)nc2cc(Cl)ccc12 [XLIII-2, N-[3-(dimethylamino)propyl]-7-chloro-2-phenylquinoline-4-carboxamide hydrochloride salt]	< 20	60 to 80	> 80	
CCN(CC)C1CCN(c2cc(-c3ccc(Br)cc3)nc3ccccc23)CC1 [VIII-6, 2-(4-bromo-phenyl)-4-(4-N,N-diethylamino-piperidin-1-yl)-quinoline dihydrochloride]	< 20	20 to 40		viability at 10 µM (HCT-116; [2]): < 20%
CN(C)CCCNc1cc(-c2ccccc2)nc2ccccc12.Cl.Cl [XLI-2, N^1,N^1-dimethyl-N^3-(2-phenylquinoline-4-yl)propane-1,3-diamine hydrochloride salt]				Cell viability observed at 10 μM (A375; [5]): ++++ (cell viability %<20); Cell viability observed at 10 μM (MOLM-14; [3]): ++++ (cell viability %<20)
CCN(CC)CC1CCN(c2cc(-c3ccccc3)nc3ccccc23)CC1 [XXVII-2, 2-phenyl-4-[4-(N,N-diethylaminomethyl)-piperidin-1-yl)quinoline hydrochloride salt]	20 to 40	40 to 60	> 80	
O=C(NC1CCN(Cc2ccccc2)CC1)c1cc(-c2ccccc2)nc2cc(Cl)ccc12 [XXXII-2, N-(1-benzylpiperidin-4-yl)-7-chloro-2-phenylquinoline-4-carboxamide hydrochloride salt]	> 80	40 to 60	> 80	
CCN(CC)C1CCN(c2cc(-c3ccccc3)nc3ccccc23)CC1.Cl.Cl [Compound I-4, 2-phenyl-4-(4-N,N-diethylamino-piperidin-1-yl)quinoline dihydrochloride]				Cell viability observed at 10 μM (A375; [5]): − (cell viability %>80); Cell viability observed at 10 μM (MOLM-14; [3]): + (cell viability 60>%<80)
CCN(CC)C1CCN(c2cc(-c3ccc4ccccc4c3)nc3ccccc23)CC1 [VI-6, 2-(2-naphtyl)-4-(4-N,N-diethylamino-piperidin-1-yl)quinoline dihydrochloride]	< 20	< 20	< 20	
CC(c1ccccc1)N1CCC(N(C)c2cc(-c3ccccc3)nc3ccccc23)CC1 (stereo not shown) [XXXI-2, 2-phenyl-4-[N-methyl-N—(N-1-phenylethyl-piperidin-4-yl)-amino]quinoline hydrochloride salt]				viability at 10 µM (A375; [1]): > 80%; viability at 10 µM (HCT-116; [2]): > 80%; viability at 10 µM (MOLM-14; [3]): > 80%
CCN(CC)C1CCN(Cc2cc(-c3ccccc3)nc3ccccc23)CC1 [XX-5, 2-phenyl-4-[4-(N,N-diethylamino)-piperidin-1-ylmethyl]quinoline dihydrochloride]	60 to 80	40 to 60	> 80	
CC(C)(C)NC1CCN(c2cc(-c3ccccc3)nc3ccccc23)CC1 [IV-2, 2-phenyl-4-(4-N-tert-butylamino-piperidin-1-yl)quinoline dihydrochloride]	40 to 60	20 to 40	60 to 80	
CCN(CC)CC1CCN(c2cc(-c3ccccc3)nc3cc(Cl)ccc23)CC1 [XXVI-4, 7-chloro-2-phenyl-4-[4-(N,N-diethylaminomethyl)-piperidin-1-yl]-quinoline hydrochloride salt]	> 80	> 80	> 80	
CN(C)CCN(C)c1cc(-c2ccc3ccccc3c2)nc2ccccc12 [XXXVII-2, N^1,N^1,N^2-trimethyl-N^2-(2-naphthalen-2-yl-quinoline-4-yl)-ethane-1,2-diamine hydrochloride salt]	40 to 60	40 to 60	> 80	
